Values quoted from earlier work in patent publication US6316468A, “Phenylindole derivatives as 5-HT2A receptor antagonists” (Merck Sharp & Dohme Ltd., priority 1997, dated 2001).

Columns and labels:
[1] = system: apomorphine-induced stereotyped behaviour; conditions: animal models, preclinical studies
[2] = schizophrenic patients, multicentre, placebo-controlled study
[3] = system: human dopamine D2 receptor

For `COc1cccc(C(O)C2CCN(CCc3ccc(F)cc3)CC2)c1OC` (single isomer, unassigned) [MDL-100,907, (+)-α-(2,3-dimethoxyphenyl)-1-[2-(4-fluorophenyl)-ethyl]-4-piperidinemethanol], the “antagonism of human 5-HT2A receptors” value (human 5-HT2A receptors) is given as “potent antagonist”, the “block of apomorphine-induced stereotyped behaviour” value [1] is given as “failed to block apomorphine-induced stereotyped behaviour” and the “efficacy for antipsychotic potential” value [2] is given as “demonstrated efficacy”. For the same compound, the “activity at the human dopamine D2 receptor” value [3] was “essentially devoid of activity”.
